{"source": "patent US3971814A", "about": "“Benzo(b)thiophene derivatives” (priority 1972, dated 1976)", "key": {"Granulation Tissue [1]": {"test_system": "Granulation Tissue", "test": "Cotton-pellet test (granulation tissue)", "type": "in vivo", "details": "rat, sc., section K; for increase in body weight %: control 27"}, "[2]": {"test_system": "Yeast Edema of the Rat Paw", "test": "Yeast edema and determination of pain threshold in the rat paw", "type": "in vivo", "details": "3 h, sc., 150 mg/kg", "experimental": "test animals are male rats (SIV 50) weighing 100 to 180 g. […] 10 animals belonged to each dosage group.\nThe volume of the paw is determined according to the method described by Enders and Heidbrink, the pain threshold according to that described by Randall and Selitto (Arch. Int. Pharmacodyn CXI: 409, 1957).\nFollowing initial measurements, […] of a 5% suspension of dried yeast is injected subplantarly into the right paw and the test substances are administered immediately. The blank control group is given Tragacanth mucilage only. After 3 hours the pain threshold and the volume of the paw are determined again.\nThe mean value of the increase in paw volume of the animals of the blank control after 3 hours is rated 100%, and the mean value of the increase in paw volume of the animals of the substance groups expressed as a percentage thereof. Pain threshold after 3 hours reflects the increase or decrease in percent, compared to the initial value.\nIn order to be able to calculate the ED50 according to the method by Lichtfield and Wilcoxon (J.P.E.T. 96:99, 1949), those animals in a dose group are considered protected when the paw swelling was at least 40% less than that of the blank control."}, "in vivo": {"test": "in vivo", "details": "mouse"}, "Granulation Tissue [3]": {"test_system": "Granulation Tissue", "test": "Cotton-pellet test (granulation tissue)", "type": "in vivo", "details": "rat, sc., 2×75,0 mg/kg daily, section K", "experimental": "test animals are male rats (SIV 50) weighing 110 to 200 g. All test animals are kept fasting for 16 to 18 hours prior to the implantation of the pellets; after that food and water were available ad libitum. Each dose level of the chemical tested was administered to 12 animals. The substances were suspended in 1% Tragacanth mucilage and administered intragastrically by means of a stomach tube. The substances to be investigated and the control suspensions are administered once on the operating day following operation, and twice a day on the following 6 days (at intervals of 6 to 8 hours). The type of application and volume of liquid corresponded to that under B.\nUnder light ether anesthesia 4 sterile cotton pellets were implanted under the skin on the back of the animal. The weight of one pellet was 50 mg ± 0.5 mg. After 7 days treatment, the animals were sacrificed, the pellets removed with the granulation tissue, weighed and then dried in the incubator at +80°C to constant weight. The average dry weight of the granulation tissue of the control group was rated 100%, and deviations of the mean weights of the group treated with the test substance determined as a percentage thereof.\nThe weight of the animals is measured daily throughout the tests, and the percental increase determined. At the end of some tests, moreover, the suprarenal glands are removed and their weight determined."}}, "data": [{"smiles": "CCN(CC)CCNC(=N)c1sc2ccccc2c1O", "note": "[Example 30]", "values": [{"measurement": "granulation tissue % dry weight", "setting": "Granulation Tissue [1]; 2×50,0 mg/kg daily", "value": 82, "unit": "%"}, {"measurement": "increase in body weight %", "setting": "Granulation Tissue [1]; 2×50,0 mg/kg daily", "value": 27, "unit": "%"}, {"measurement": "increase in body weight %", "setting": "Granulation Tissue [1]; 2×75,0 mg/kg daily", "value": 27, "unit": "%"}, {"measurement": "change in vivo at 150 mg/kg", "setting": "[2]; section K (control -26)", "value": 18, "unit": "%"}, {"measurement": "response vs control in vivo at 150 mg/kg", "setting": "[2]; section K, read-out: volume (paw, control = 100%)", "value": 53, "unit": "%"}, {"measurement": "LD50", "setting": "in vivo; po", "value": "~1000", "unit": "mg/kg"}, {"measurement": "LD50", "setting": "in vivo; sc", "value": "~1000", "unit": "mg/kg"}, {"measurement": "granulation tissue % dry weight", "setting": "Granulation Tissue [3]", "value": 68, "unit": "%"}]}]}
